Read-outs that look alike come from different tables or passages of the source.
Target: human GABA A receptor α5β3γ2 (Homo sapiens (Human), UniProt P18507+P31644)
Test: [3H]flumazenil competition binding assay, human GABA A α5β3γ2 receptors expressed in HEK293 cells
How it was run: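 Competition for [3H]flumazenil binding on membranes of HEK293 cells transiently transfected with human α5β3γ2 receptors, in Krebs-tris buffer pH 7.5.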

[1] = human receptor, displacement of [3H]flumazenil (0.5 nM), means of two determinations, read-out: hKi GABAAa5

SMILES	Ki [1] [nM]	Ki [nM]
O=C(NC1CCOCC1)c1ccc(OCc2conc2-c2ccc(F)cn2)nc1 [Example 365, 6-[3-(5-Fluoro-pyridin-2-yl)-isoxazol-4-ylmethoxy]-(tetrahydro-pyran-4-yl)-nicotinamide]	8	
O=C(NCCO)c1ccc(OCc2c(-c3ccccc3)noc2C(F)(F)F)nc1 [Example 131, N-(2-Hydroxy-ethyl)-6-(3-phenyl-5-trifluoromethyl-isoxazol-4-ylmethoxy)-nicotinamide]	34	
Cc1onc(-c2ccc(Cl)cn2)c1COc1ccc(C(=O)NCCO)cn1 [Example 311, 6-[3-(5-Chloro-pyridin-2-yl)-5-methyl-isoxazol-4-ylmethoxy]-(2-hydroxy-ethyl)-nicotinamide]	0.1	
CC(C)NC(=O)c1ccc(OCc2c(-c3ccc(F)cc3)noc2C(F)(F)F)nc1 [Example 142, 6-[3-(4-Fluoro-phenyl)-5-trifluoromethyl-isoxazol-4-ylmethoxy]-N-isopropyl-nicotinamide]	33.5	
COC(=O)c1ccc(OCc2c(-c3ccc(F)cc3)noc2C(F)(F)F)nc1 [Example 136, 6-[3-(4-Fluoro-phenyl)-5-trifluoromethyl-isoxazol-4-ylmethoxy]-nicotinic acid methyl ester]	57	
CCN1CCC(NC(=O)c2ccc(OCc3c(-c4ccccc4)noc3C)nc2)CC1 [Example 35, N-(1-Ethyl-piperidin-4-yl)-6-(5-methyl-3-phenyl-isoxazol-4-ylmethoxy)-nicotinamide]	9.4	
O=C(NCCO)c1ccc(OCc2conc2-c2ccc(Cl)cc2)nc1 [Example 346, 6-[3-(4-Chloro-phenyl)-isoxazol-4-ylmethoxy]-N-(2-hydroxy-ethyl)-nicotinamide]	10.9	
Cc1onc(-c2ccccc2)c1COc1ccc(C(=O)N[C@@H]2CCOC(C)(C)C2)cn1 (racemic) [Example 32, (R,S)—N-(2,2-Dimethyl-tetrahydro-pyran-4-yl)-6-(5-methyl-3-phenyl-isoxazol-4-ylmethoxy)-nicotinamide]	8	
Cc1onc(-c2ccccc2)c1COc1ccc(C(=O)NC2CCCN(CC(=O)NC3CCOCC3)C2)cn1 (stereo not shown) [Example 46, 6-(5-Methyl-3-phenyl-isoxazol-4-ylmethoxy)-N-{1-[(tetrahydro-pyran-4-ylcarbamoyl)-methyl]-piperidin-3-yl}-nicotinamide]	13.1	
O=C(NC1CC1)c1ccc(OCc2c(-c3ccc(F)cc3)noc2C(F)(F)F)nc1 [Example 143, N-Cyclopropyl-6-[3-(4-fluoro-phenyl)-5-trifluoromethyl-isoxazol-4-ylmethoxy]-nicotinamide]	38.4	
Cc1onc(-c2ccccc2)c1COc1ncc(C(=O)NC2CCOCC2)cc1Br [Example 65, 5-Bromo-6-(5-methyl-3-phenyl-isoxazol-4-ylmethoxy)-N-(tetrahydro-pyran-4-yl)-nicotinamide]	24.4	
Cc1onc(-c2ccccc2)c1COc1ccc(C(=O)NCC2CCCOC2)cn1 (stereo not shown) [Example 76, 6-(5-Methyl-3-phenyl-isoxazol-4-ylmethoxy)-N-(tetrahydro-pyran-3-ylmethyl)-nicotinamide]	11.7	
O=C(NCCO)c1ccc(OCc2c(-c3ccc(F)cc3)noc2C(F)(F)F)nc1 [Example 139, 6-[3-(4-Fluoro-phenyl)-5-trifluoromethyl-isoxazol-4-ylmethoxy]-N-(2-hydroxy-ethyl)-nicotinamide]	16.5	
Cc1onc(-c2ccc(F)cn2)c1COc1ccc(C(=O)NC2CC2)cn1 [Example 290, Cyclopropyl-6-[3-(5-fluoro-pyridin-2-yl)-5-methyl-isoxazol-4-ylmethoxy]-nicotinamide]	0.6	
Cc1onc(-c2ccc(F)cn2)c1COc1ccc(C(=O)NCC2CC2)cn1 [Example 292, Cyclopropylmethyl-6-[3-(5-fluoro-pyridin-2-yl)-5-methyl-isoxazol-4-ylmethoxy]-nicotinamide]	0.4	
Cc1onc(-c2ccccc2)c1COc1ccc(C(=O)NC2CCCN(CC(=O)NC3CC3)C2)cn1 (stereo not shown) [Example 43, N-(1-Cyclopropylcarbamoylmethyl-piperidin-3-yl)-6-(5-methyl-3-phenyl-isoxazol-4-ylmethoxy)-nicotinamide]	12.3	
Cc1onc(-c2ccccc2)c1COc1ccc(C(=O)NC2CCCCC2)cn1 [Example 30, N-Cyclohexyl-6-(5-methyl-3-phenyl-isoxazol-4-ylmethoxy)-nicotinamide]	13.1	
Cc1onc(-c2ccccc2)c1COc1ccc(C(=O)NC2CCN(C(C)C)CC2)cn1 [Example 36, N-(1-Isopropyl-piperidin-4-yl)-6-(5-methyl-3-phenyl-isoxazol-4-ylmethoxy)-nicotinamide]		9.9
Cc1onc(-c2ccccn2)c1COc1ccc(C(=O)O)cn1 [Example 283, 6-(5-Methyl-3-pyridin-2-yl-isoxazol-4-ylmethoxy)-nicotinic acid]	22.3	
Cc1onc(-c2ccncc2)c1COc1ccc(C(=O)N2CCSCC2)cn1 [Example 152, [6-(5-Methyl-3-pyridin-4-yl-isoxazol-4-ylmethoxy)-pyridin-3-yl]-thiomorpholin-4-yl-methanone]	39.7	
CCCCS(=O)(=O)NC(=O)c1ccc(OCc2c(-c3ccccc3)noc2C)nc1 [Example 233, Butane-1-sulfonic acid [6-(5-methyl-3-phenyl-isoxazol-4-ylmethoxy)-pyridine-3-carbonyl]-amide]	32.2	
Cc1onc(-c2ccc(F)cn2)c1COc1ccc(C(=O)NCCO)cn1 [Example 295, 6-[3-(5-Fluoro-pyridin-2-yl)-5-methyl-isoxazol-4-ylmethoxy]-(2-hydroxy-ethyl)-nicotinamide]	0.4	

Now from value to compound, other results behind:

Ki [1] [nM]	SMILES	Ki [nM]
4.8	CNC(=O)c1ccc(OCc2c(-c3ccncn3)noc2C)nc1 [Example 318, N-Methyl-6-(5-methyl-3-pyrimidin-4-yl-isoxazol-4-ylmethoxy)-nicotinamide]	
17.4	COC(=O)c1ccc(OCc2c(-c3cccc(F)c3)noc2C)nc1 [Example 88, 6-[3-(3-Fluoro-phenyl)-5-methyl-isoxazol-4-ylmethoxy]-nicotinic acid methyl ester]	
17.7	CSc1ccc(OCc2c(-c3ccccc3)noc2C)nc1 [Example 247, 2-(5-Methyl-3-phenyl-isoxazol-4-ylmethoxy)-5-methylsulfanyl-pyridine]	
65.7	Cc1onc(-c2ccncc2)c1COc1ccc(C(=O)N2CCS(=O)(=O)CC2)cn1 [Example 153, (1,1-Dioxo-1λ6-thiomorpholin-4-yl)-[6-(5-methyl-3-pyridin-4-yl-isoxazol-4-ylmethoxy)-pyridin-3-yl]-methanone]	
15.1	O=C(NCC(F)(F)F)c1ccc(OCc2conc2-c2ccc(F)cc2)nc1 [Example 330, 6-[3-(4-Fluoro-phenyl)-isoxazol-4-ylmethoxy]-N-(2,2,2-trifluoro-ethyl)-nicotinamide]	
3.8	Cc1onc(-c2ccc(Cl)cn2)c1COc1ccc(C(=O)O)cn1 [Example 304, 6-[3-(5-Chloro-pyridin-2-yl)-5-methyl-isoxazol-4-ylmethoxy]-nicotinic acid]	
7.3	CC(C)NC(=O)c1ccc(OCc2conc2-c2ccc(F)cc2)nc1 [Example 323, 6-[3-(4-Fluoro-phenyl)-isoxazol-4-ylmethoxy]-N-isopropyl-nicotinamide]	
17.7	O=C(NC1CCOCC1)c1ccc(OCc2conc2-c2ccccc2)nc1 [Example 322, 6-(3-Phenyl-isoxazol-4-ylmethoxy)-N-(tetrahydro-pyran-4-yl)-nicotinamide]	
3.9	Cc1onc(-c2ccccc2)c1COc1ccc(C(=O)NC2CCCC2O)cn1 (stereo not shown) [Example 200, N-(2-Hydroxy-cyclopentyl)-6-(5-methyl-3-phenyl-isoxazol-4-ylmethoxy)-nicotinamide]	
27.4	COC(=O)c1ccc(NCc2c(-c3ccccc3)noc2C)nc1 [Example 161, 6-[(5-Methyl-3-phenyl-isoxazol-4-ylmethyl)-amino]-nicotinic acid methyl ester]	
1.1	Cc1onc(-c2ccc(F)cc2)c1COc1ccc(C(=O)NC2CC2)cn1 [Example 108, N-Cyclopropyl-6-[3-(4-fluoro-phenyl)-5-methyl-isoxazol-4-ylmethoxy]-nicotinamide]	
19.4	Cc1onc(-c2cccc(F)c2)c1CNc1ccc(C(=O)NC2CC2)cn1 [Example 170, N-Cyclopropyl-6-{[3-(3-fluoro-phenyl)-5-methyl-isoxazol-4-ylmethyl]-amino}-nicotinamide]	
0.9	Cc1ccc(-c2noc(C)c2COc2ccc(C(=O)NC3CCOCC3)cn2)cc1 [Example 251, 6-(5-Methyl-3-p-tolyl-isoxazol-4-ylmethoxy)-N-(tetrahydro-pyran-4-yl)-nicotinamide]	
2.3	Cc1onc(-c2ccccc2)c1COc1ccc(C(=O)NCC(C)(C)O)cn1 [Example 193, N-(2-Hydroxy-2-methyl-propyl)-6-(5-methyl-3-phenyl-isoxazol-4-ylmethoxy)-nicotinamide]	
36.7	Cc1onc(-c2ccccc2)c1COc1ccc(C(=O)N(C)S(=O)(=O)C2CC2)cn1 [Example 236, Cyclopropanesulfonic acid methyl-[6-(5-methyl-3-phenyl-isoxazol-4-ylmethoxy)-pyridine-3-carbonyl]-amide]	
0.7	CC[C@@H](CO)NC(=O)c1ccc(OCc2c(-c3ccccc3)noc2C)nc1 [Example 208, N—((S)-1-Hydroxymethyl-propyl)-6-(5-methyl-3-phenyl-isoxazol-4-ylmethoxy)-nicotinamide]	
5	Cc1onc(-c2ccccc2)c1COc1ccc(C(=O)N2CC(O)C2)cn1 [Example 191, (3-Hydroxy-azetidin-1-yl)-[6-(5-methyl-3-phenyl-isoxazol-4-ylmethoxy)-pyridin-3-yl]-methanone]	
0.4	Cc1onc(-c2ccc(Cl)cc2F)c1COc1ccc(C(=O)NC(C)C)cn1 [Example 270, 6-[3-(4-Chloro-2-fluoro-phenyl)-5-methyl-isoxazol-4-ylmethoxy]-N-isopropyl-nicotinamide]	

From US8846719B2, “Isoxazolo-pyridine derivatives” (Roche Palo Alto LLC, priority 2007, dated 2014)
